Assay results: PubChem BioAssay (NCI)
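48-hour exposure; five concentrations; linearly interpolated endpoints. The concentration for 50% growth inhibition is given as GI50. At the TGI there is no net growth.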

Tests used:
Assay in all cases: NCI tumour cell line growth inhibition, 48 h
NCI-H23 lung = test system: NCI-H23 lung
SW-620 colon = test system: SW-620 colon
SF-539 CNS = test system: SF-539 CNS
SR leukemia = test system: SR leukemia
NCI-H460 lung = test system: NCI-H460 lung
HS 578T breast = test system: HS 578T breast
SK-MEL-2 melanoma = test system: SK-MEL-2 melanoma
HL-60(TB) leukemia = test system: HL-60(TB) leukemia

For COc1cc2c(cc1OCCN1CCN(CCN3C(=O)c4cccc5cccc(c45)C3=O)CC1)N=C[C@@H]1CCCN1C2=O, the GI50 (NCI-H23 lung) was 13 µM, the TGI (NCI-H23 lung) was 25.6 µM and the GI50 (SW-620 colon) was 19.6 µM. The TGI (SW-620 colon) was 40 µM, the GI50 (SF-539 CNS) was 20.8 µM and the TGI (SF-539 CNS) was 45.6 µM. For the same compound, the GI50 (SR leukemia) was 19.7 µM, the TGI (SR leukemia) was 41.8 µM and the GI50 (NCI-H460 lung) was 18.1 µM. The TGI (NCI-H460 lung) was 42.8 µM, the GI50 (HS 578T breast) was 24.9 µM and the TGI (HS 578T breast) was 54.4 µM. It also gave a GI50 (SK-MEL-2 melanoma) of 24.6 µM and a TGI (SK-MEL-2 melanoma) of 51.1 µM.
Compound CN(C)CCCC1(c2ccc(F)cc2)OCc2cc(-c3csc4ccccc34)ccc21 (stereo not given) has a GI50 (HL-60(TB) leukemia) of 1.77 µM, a TGI (HL-60(TB) leukemia) of 3.7 µM and a GI50 (NCI-H23 lung) of 1.55 µM. The TGI (NCI-H23 lung) was 3.02 µM, the GI50 (SW-620 colon) was 1.63 µM and the TGI (SW-620 colon) was 3.22 µM. It also gave a GI50 (SF-539 CNS) of 1.71 µM, a TGI (SF-539 CNS) of 3.08 µM and a GI50 (NCI-H460 lung) of 1.6 µM. It also gave a TGI (NCI-H460 lung) of 3.18 µM, a GI50 (HS 578T breast) of 1.74 µM and a TGI (HS 578T breast) of 3.76 µM. For the same compound, the GI50 (SK-MEL-2 melanoma) was 1.83 µM and the TGI (SK-MEL-2 melanoma) was 3.58 µM.
Cc1cccc(Oc2ccc(Nc3ncnc4ccc(NC(=O)CN(C)C)cc34)cc2Cl)c1 was tested, and the GI50 (HL-60(TB) leukemia) was 2.07 µM, the TGI (HL-60(TB) leukemia) was 4.72 µM and the GI50 (NCI-H23 lung) was 2.95 µM. For the same compound, the TGI (NCI-H23 lung) was 11.6 µM, the GI50 (SW-620 colon) was 1.64 µM and the TGI (SW-620 colon) was 3.05 µM. For the same compound, the GI50 (SF-539 CNS) was 1.82 µM, the TGI (SF-539 CNS) was 3.42 µM and the GI50 (NCI-H460 lung) was 1.81 µM. It also gave a TGI (NCI-H460 lung) of 3.35 µM, a GI50 (HS 578T breast) of 1.81 µM and a TGI (HS 578T breast) of 4.33 µM. The GI50 (SK-MEL-2 melanoma) was 1.84 µM and the TGI (SK-MEL-2 melanoma) was 3.63 µM.
COc1cc(NC(=O)COc2ccccc2)c(C(N)=O)cc1OC was tested, and the GI50 (HL-60(TB) leukemia) was 0.293 µM, the TGI (HL-60(TB) leukemia) was 7.25 µM and the GI50 (NCI-H23 lung) was 1.32 µM. For the same compound, the TGI (NCI-H23 lung) was 20.4 µM, the GI50 (SW-620 colon) was 0.646 µM and the TGI (SW-620 colon) was over 100 µM. It also gave a GI50 (SF-539 CNS) of 0.563 µM, a TGI (SF-539 CNS) of 3.59 µM and a GI50 (SR leukemia) of 0.515 µM. It also gave a TGI (SR leukemia) of over 100 µM, a GI50 (NCI-H460 lung) of 0.529 µM and a TGI (NCI-H460 lung) of over 100 µM. It also gave a GI50 (HS 578T breast) of 0.771 µM and a TGI (HS 578T breast) of 26.9 µM.
In the case of O=C1C[C@@H]2OCC=C3C[N+]4([O-])CC[C@]56c7ccccc7N1[C@H]5[C@H]2[C@H]3C[C@@H]64 (stereo not given in full), the GI50 (HL-60(TB) leukemia) is reported as over 100 µM, the TGI (HL-60(TB) leukemia) is reported as over 100 µM and the GI50 (NCI-H23 lung) is reported as over 100 µM. The TGI (NCI-H23 lung) was over 100 µM, the GI50 (SW-620 colon) was over 100 µM and the TGI (SW-620 colon) was over 100 µM. The GI50 (SF-539 CNS) was over 100 µM, the TGI (SF-539 CNS) was over 100 µM and the GI50 (SR leukemia) was over 100 µM. It also gave a TGI (SR leukemia) of over 100 µM, a GI50 (NCI-H460 lung) of over 100 µM and a TGI (NCI-H460 lung) of over 100 µM. The GI50 (HS 578T breast) was over 100 µM and the TGI (HS 578T breast) was over 100 µM.
In the case of CC1(C)CC2=NO[Se]3=C2C(=NO3)C1, the TGI (HL-60(TB) leukemia) is reported as 5.08 µM, the TGI (NCI-H23 lung) is reported as 5.65 µM and the TGI (SW-620 colon) is reported as 12.3 µM. For the same compound, the TGI (SF-539 CNS) was 5.75 µM, the TGI (NCI-H460 lung) was 4.05 µM and the TGI (HS 578T breast) was 33.1 µM. For the same compound, the TGI (SK-MEL-2 melanoma) was 24.8 µM.
COc1ccc(-c2c(Nc3ccccn3)nc3c(C4=CCCCC4)c(-c4ccccc4)[nH]n3c2=O)cc1 showed a GI50 (NCI-H23 lung) of 4.17 µM, a TGI (NCI-H23 lung) of 24.1 µM and a GI50 (SW-620 colon) of 3.07 µM. It also gave a TGI (SW-620 colon) of over 100 µM, a GI50 (SF-539 CNS) of 2.81 µM and a TGI (SF-539 CNS) of 18.6 µM. For the same compound, the GI50 (NCI-H460 lung) was 0.645 µM, the TGI (NCI-H460 lung) was 14 µM and the GI50 (HS 578T breast) was 3.32 µM. For the same compound, the TGI (HS 578T breast) was 33.1 µM, the GI50 (SK-MEL-2 melanoma) was 2.21 µM and the TGI (SK-MEL-2 melanoma) was 9.54 µM.
COc1cc2c(cc1C)NC(=O)/C2=C\c1ccc(Oc2ccccc2)cc1 was tested, and the GI50 (HL-60(TB) leukemia) was 0.0511 µM, the TGI (HL-60(TB) leukemia) was 11.8 µM and the GI50 (NCI-H23 lung) was 15.6 µM. It also gave a TGI (NCI-H23 lung) of 32.2 µM, a GI50 (SW-620 colon) of 16.1 µM and a TGI (SW-620 colon) of 32.5 µM. It also gave a GI50 (SF-539 CNS) of 17.9 µM, a TGI (SF-539 CNS) of 32.7 µM and a GI50 (SR leukemia) of 0.0697 µM. For the same compound, the TGI (SR leukemia) was 2.1 µM, the GI50 (HS 578T breast) was 20.7 µM and the TGI (HS 578T breast) was 46.9 µM. The GI50 (SK-MEL-2 melanoma) was 17 µM and the TGI (SK-MEL-2 melanoma) was 40.9 µM.
Compound O=C1c2ccccc2N1C(=O)c1ccccc1[N+](=O)[O-] has a TGI (NCI-H23 lung) of over 100 µM, a TGI (SW-620 colon) of over 100 µM and a TGI (SF-539 CNS) of over 100 µM. For the same compound, the TGI (SR leukemia) was over 100 µM, the TGI (NCI-H460 lung) was over 100 µM and the TGI (HS 578T breast) was over 100 µM. For the same compound, the TGI (SK-MEL-2 melanoma) was over 100 µM.
